Data taken from US20240158446A1, “CYCLIC COMPOUND HAVING SELECTIVE INHIBITORY ACTION ON KRAS OVER HRAS AND NRAS” (CHUGAI SEIYAKU KABUSHIKI KAISHA, priority 2021, published 2024).
Like-named read-outs stand apart in the source and are kept apart here. Where a SMILES comes first, the peptide text is derived from it. Bridges are numbered along the chain shown (N, C = ends). [ ]: non-standard residue; d: D form. The star is where a group is joined. hPhe(3-Cl-4-CF3) = N[C@@H](CCc1ccc(C(F)(F)F)c(Cl)c1)C(=O)O; NPrPhe(4-Me) = CCCN[C@@H](Cc1ccc(C)cc1)C(=O)O; NMeGly(cPent) = CN[C@H](C(=O)O)C1CCCC1; NMeD = CN[C@@H](CC(=O)O)C(=O)O; NMeL = CN[C@@H](CC(C)C)C(=O)O; Morpholide = C1CN(*)CCO1; Ac5c = NC1(C(=O)O)CCCC1; Aze = O=C(O)[C@@H]1CCN1; Sar = CNCC(=O)O

Assays:
[1] = target: GDP-bound KRAS wild-type protein (Homo sapiens, UniProt P01116); experiment: Binding to KRAS by surface plasmon resonance (SPR), Single Cycle Kinetics
Sequence of GDP-bound KRAS wild-type protein (P01116 whole entry): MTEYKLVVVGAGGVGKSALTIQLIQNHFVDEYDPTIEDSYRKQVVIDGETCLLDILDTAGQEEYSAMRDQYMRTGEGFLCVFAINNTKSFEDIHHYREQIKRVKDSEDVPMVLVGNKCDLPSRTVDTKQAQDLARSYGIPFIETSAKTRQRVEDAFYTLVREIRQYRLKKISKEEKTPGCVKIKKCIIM

[2] = target: GDP-bound NRAS wild-type protein (Homo sapiens, UniProt P01111); experiment: Binding to NRAS by surface plasmon resonance (SPR), Single Cycle Kinetics; details: SPR; for NRAS/KRAS (ratio of KD value for NRAS to KD value for KRAS): GDP-bound NRAS wild-type protein vs GDP-bound KRAS wild-type protein
Sequence of GDP-bound NRAS wild-type protein (P01111 whole entry): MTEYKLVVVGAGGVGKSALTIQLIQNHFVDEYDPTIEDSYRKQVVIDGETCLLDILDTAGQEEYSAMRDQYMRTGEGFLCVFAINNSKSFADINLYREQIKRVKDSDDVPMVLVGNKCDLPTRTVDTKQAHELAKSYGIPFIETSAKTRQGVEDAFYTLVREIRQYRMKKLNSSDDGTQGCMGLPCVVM

[3] = target: GDP-bound HRAS wild-type protein (Homo sapiens, UniProt P01112); experiment: Binding to HRAS by surface plasmon resonance (SPR), Single Cycle Kinetics; details: for HRAS/KRAS (ratio of KD value for HRAS to KD value for KRAS) / ratio of the KD value with respect to GDP-bound HRAS wild-type protein to the KD value with respect to KRAS: SPR; for HRAS/KRAS (ratio of KD value for HRAS to KD value for KRAS): GDP-bound HRAS wild-type protein vs GDP-bound KRAS wild-type protein; for HRAS/KRAS (ratio of KD value with respect to GDP-bound HRAS wild-type protein to KD value with respect to KRAS): SPR KD ratio HRAS/KRAS, class symbols
Sequence of GDP-bound HRAS wild-type protein (P01112 whole entry): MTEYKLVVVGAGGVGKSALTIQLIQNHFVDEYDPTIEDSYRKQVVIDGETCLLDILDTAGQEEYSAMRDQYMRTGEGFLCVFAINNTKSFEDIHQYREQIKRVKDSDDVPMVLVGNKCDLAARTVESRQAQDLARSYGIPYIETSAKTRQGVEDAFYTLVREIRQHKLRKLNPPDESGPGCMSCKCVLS

[4] = test system: human lung cancer strain NCI-H441;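 further: cell proliferation inhibition after four days measured by CellTiter-Glo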
[5] = SPR, Single Cycle Kinetics, GDP-bound KRAS wild-type protein, read-out: KRAS KD
[6] = SPR Single Cycle Kinetics, GDP-bound KRAS wild-type protein, 1:1 binding model, read-out: KRAS KD
[7] = SPR, Single Cycle Kinetics, 1:1 binding model, read-out: KD value with respect to GDP-bound KRAS wild-type protein
[8] = read-out: NCI-H441 cell proliferation inhibitory activity, 50% proliferation inhibitory concentration (IC50 value), NCI-H441, four days, CellTiter-Glo

Row | SMILES | IC50 [4] | Kd [1, 5] | HRAS/KRAS (ratio of KD value for HRAS to KD value for KRAS) [3] | Kd [1, 6] | IC50 [4, 8] | also measured
1 | CC[C@H](C)[C@@H]1NC(=O)[C@H](CC(C)C)N(C)C(=O)C[C@@H](C(=O)N2CCOCC2)N(C)C(=O)[C@H](C2CCCC2)N(C)C(=O)C2(CCC2)NC(=O)[C@@H]2CCCN2C(=O)[C@H](CCc2ccc(C(F)(F)F)c(Cl)c2)NC(=O)CN(C)C(=O)[C@H](Cc2ccc(C(F)(F)F)cc2)N2C[C@H](C)CC[C@@H](C2=O)N(C)C(=O)[C@@H]2CCN2C1=O (stereo in doubt) [PP1339] | 42.1 nM |  |  |  |  | Kd ([1]; SPR, Single Cycle Kinetics, 1:1 binding model, GDP-bound KRAS wild-type protein, read-out: KRAS KD): 0.65 nM; NRAS/KRAS (ratio of KD value for NRAS to KD value for KRAS) ([2]; KD ratio class): A (a compound having 10 or more and less than 20 is denoted as A); HRAS/KRAS (ratio of KD value for HRAS to KD value for KRAS) ([3]; KD ratio class): B (a compound having 3 or more and less than 10 is denoted as B)
2 | CCC(CC)[C@H]1C(=O)N(C)[C@H](C(=O)N(C)C)CC(=O)N(C)[C@@H](COC)C(=O)N[C@@H]([C@@H](C)CC)C(=O)N(C2CC2)CC(=O)N(C)[C@H]2C/C=C\CCN(C2=O)[C@@H](Cc2ccc(C)cc2)C(=O)N(C)CC(=O)N[C@@H](CCc2ccc(Cl)c(Cl)c2)C(=O)N2C[C@H](OC(C)C)C[C@H]2C(=O)NC2(CC(C)(C)C2)C(=O)N1C (stereo in doubt) [PP2509] | 91.3 nM | 2.6 nM | A (a compound having 10 or more and less than 20 is denoted as A) |  |  | NRAS/KRAS (ratio of KD value for NRAS to KD value for KRAS) [2]: AA (a compound having 20 or more is denoted as AA)
3 | CCCN1C(=O)[C@@H]2CCN2C(=O)[C@H](C)NC(=O)[C@H]([C@@H](C)CC)NC(=O)[C@H](CC(C)C)N(C)C(=O)C[C@@H](C(=O)N2CCOCC2)N(C)C(=O)[C@H](C2CCCC2)N(C)C(=O)C2(CCCC2)NC(=O)[C@@H]2CCCN2C(=O)[C@H](CCc2ccc(C(F)(F)F)c(Cl)c2)NC(=O)CN(C)C(=O)[C@@H]1Cc1ccc(C)cc1 [PP0071] ([NMeL]IA[Aze][NPrPhe(4-Me)][Sar][hPhe(3-Cl-4-CF3)]P[Ac5c][NMeGly(cPent)][NMeD]-Morpholide; lactam N-11) | 3.8 nM |  |  | 0.15 nM |  | 
4 | CCCCCC[C@H]1C(=O)N[C@@H]([C@@H](C)CC)C(=O)N(C)CC(=O)N(C)[C@H]2C/C=C\CCN(C2=O)[C@@H](Cc2ccc(C(F)(F)F)cc2)C(=O)N(C)CC(=O)N[C@@H](CCc2cc(F)c(C(F)(F)F)c(F)c2)C(=O)N2C[C@H](OCC)C[C@H]2C(=O)NC2(CCC2)C(=O)N(C)[C@@H](C(CC)CC)C(=O)N(C)[C@H](C(=O)N(C)C)CC(=O)N1C [PP1202] | 24.1 nM | 0.4 nM |  |  |  | 
5 | CCC(CC)[C@H]1C(=O)N(C)[C@H](C(=O)N(C)C)CC(=O)N(C)[C@@H](COC)C(=O)N[C@@H]([C@@H](C)CC)C(=O)N(C2CC2)CC(=O)N(C)[C@H]2C/C=C\CCN(C2=O)[C@@H](CC2CCCCC2)C(=O)N(C)CC(=O)N[C@@H](CCc2ccc(Cl)c(Cl)c2)C(=O)N2C[C@H](OC(C)C)C[C@H]2C(=O)NC2(CC(C)(C)C2)C(=O)N1C [PP2517] | 562 nM | 9.3 nM | A (a compound having 10 or more and less than 20 is denoted as A) |  |  | 
6 | CCC[C@H]1C(=O)N[C@@H](CC(C)C)C(=O)N(C2CC2)CC(=O)N(C)[C@H]2C/C=C\CCN(C2=O)[C@@H](Cc2ccc(C)cc2)C(=O)N(C)CC(=O)N[C@@H](CCc2ccc(C(F)(F)F)c(Cl)c2)C(=O)N2C[C@H](OCC)C[C@H]2C(=O)NC2(CCC2)C(=O)N(C)[C@@H](C2CCCC2)C(=O)N(C)[C@H](C(=O)N(C)C)CC(=O)N1C [PP2543] | 179 nM |  |  | 4.2 nM |  | HRAS/KRAS (ratio of KD value with respect to GDP-bound HRAS wild-type protein to KD value with respect to KRAS) [3]: B (a compound having 3 or more and less than 10 is denoted as B)
7 | CC[C@H](C)[C@@H]1NC(=O)[C@H](COC)N(C)C(=O)C[C@@H](C(=O)N2CCCCC2)N(C)C(=O)[C@H](C2CCCC2)N(C)C(=O)C2(CC(C)(C)C2)NC(=O)[C@@H]2C[C@@H](OC(C)C)CN2C(=O)[C@H](CCc2cc(F)c(C(F)(F)F)c(F)c2)NC(=O)CN(C)C(=O)[C@H](Cc2ccc(C(F)(F)F)cc2)N2CC/C=C\C[C@@H](C2=O)N(C)C(=O)CN(C)C1=O [PP2663] | 11.2 nM |  |  | 0.24 nM |  | HRAS/KRAS (ratio of KD value with respect to GDP-bound HRAS wild-type protein to KD value with respect to KRAS) [3]: A (a compound having 10 or more and less than 20 is denoted as A)
8 | CCC[C@H]1C(=O)N[C@@H]([C@@H](C)CC)C(=O)N(C)CC(=O)N(C)[C@H]2C/C=C\CCN(C2=O)[C@@H](Cc2ccc(C(F)(F)F)cc2)C(=O)N(C)CC(=O)N[C@@H](CCc2ccc(C(F)(F)F)c(OC)c2)C(=O)N2C[C@H](OCC)C[C@H]2C(=O)N(C)C2(CCC2)C(=O)N(C)[C@@H](C2CCCC2)C(=O)N(C)[C@H](C(=O)N2CCCCC2)CC(=O)N1C [PP3103, (2S,8S,12R,14S,20S,23S,27S,30S,36S,38Z)-20-cyclopentyl-12-ethoxy-8-[2-[3-methoxy-4-(trifluoromethyl)phenyl]ethyl]-4,16,19,22,26,32,35-heptamethyl-30-[(1S)-1-methylpropyl]-23-(piperidine-1-carbonyl)-27-propyl-2-[[4-(trifluoromethyl)phenyl]methyl]spiro[1,4,7,10,16,19,22,26,29,32,35-undecazatricyclo[34.5.1.0^10,14]dotetracont-38-ene-17,1′-cyclobutane]-3,6,9,15,18,21,25,28,31,34,42-undecone] |  | 0.21 nM | A (a compound having 10 or more and less than 20 is denoted as A) |  | 21.5 nM | Kd [1, 7]: 0.21 nM; ratio of the KD value with respect to GDP-bound HRAS wild-type protein to the KD value with respect to KRAS [3]: A (a compound having 10 or more and less than 20 is denoted as A)
9 | CC[C@H](C)[C@@H]1NC(=O)[C@H](CC(C)C)N(C)C(=O)CSC[C@H](C(=O)N(C)C)N(C)C(=O)[C@H](C2CCCC2)N(C)C(=O)C2(CCCC2)NC(=O)[C@@H]2CCCN2C(=O)[C@H](CCc2cc(F)c(C(F)(F)F)c(F)c2)NC(=O)CN(C)C(=O)[C@H](Cc2ccc(C(F)(F)F)cc2)N2CC/C=C\C[C@@H](C2=O)N(C)C(=O)CN(C)C1=O [PP3109] |  | 3000 nM |  |  | 3420 nM | Kd [1, 7]: 3000 nM
10 | CCC[C@H]1C(=O)N[C@@H]([C@@H](C)CC)C(=O)N(C2CC2)CC(=O)N(C)[C@H]2C/C=C\CCN(C2=O)[C@@H](Cc2ccc(C)cc2)C(=O)N(C)CC(=O)N[C@@H](CCc2cc(F)c(C(F)(F)F)c(F)c2)C(=O)N2C[C@H](OCC)C[C@H]2C(=O)N(C)C2(CCC2)C(=O)N(C)[C@@H](C2CCCC2)C(=O)N(C)[C@H](C(=O)N2CCCCC2)CC(=O)N1C [PP3111, (2S,8S,12R,14S,20S,23S,27S,30S,36S,38Z)-20-cyclopentyl-32-cyclopropyl-8-[2-[3,5-difluoro-4-(trifluoromethyl)phenyl]ethyl]-12-ethoxy-4,16,19,22,26,35-hexamethyl-30-[(1S)-1-methylpropyl]-23-(piperidine-1-carbonyl)-27-propyl-2-(p-tolylmethyl)spiro[1,4,7,1016192226293235-undecazatricyclo[34.5.1.0^10,14]dotetracont-38-ene-17,1′-cyclobutane]-3,6,9,15,18,21,25,28,31,34,42-undecone] |  |  | A (a compound having 10 or more and less than 20 is denoted as A) |  | 17.8 nM | NRAS/KRAS (ratio of KD value for NRAS to KD value for KRAS) [2]: A (a compound having 10 or more and less than 20 is denoted as A); ratio of the KD value with respect to GDP-bound NRAS wild-type protein to the KD value with respect to KRAS ([2]; KD(NRAS)/KD(KRAS)): A (a compound having 10 or more and less than 20 is denoted as A); ratio of the KD value with respect to GDP-bound HRAS wild-type protein to the KD value with respect to KRAS [3]: A (a compound having 10 or more and less than 20 is denoted as A)
